Laboratory results taken from ChEMBL document CHEMBL1201862, “PubChem BioAssay data set” (2004).
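Where inhibition never reached the appropriate level, the endpoint shown equals the highest concentration tested. Otherwise, values were interpolated linearly from a five-concentration, 48-hour dose response in 96-well plates. GI50 marks 50% less growth.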 Activity calls are given as the source filed them. Cut-off read from the data, not from the text of the source: active = GI50 up to about 1.1 µM and inactive = higher.

Columns and labels:
Test in all cases: NCI tumour cell line growth inhibition, 48 h
[1] = system: NCI-H23
[2] = system: HOP-62
[3] = system: SF-268
[4] = system: 786-0
[5] = system: CCRF-CEM
[6] = system: SN12C
[7] = system: SF-539
[8] = system: HCT-116
[9] = system: SK-OV-3
[10] = system: EKVX
[11] = system: BT-549
[12] = system: OVCAR-4
[13] = system: SK-MEL-5
[14] = system: OVCAR-3
[15] = system: A549
[16] = system: OVCAR-5
[17] = system: U-251
[18] = system: K562
[19] = system: NCI/ADR-RES
[20] = system: A498
[21] = system: SNB-75
[22] = system: MDA-MB-231
[23] = system: M14
[24] = system: HCT-15
[25] = system: LOX IMVI
[26] = system: PC-3
[27] = system: SK-MEL-28
[28] = system: SK-MEL-2
[29] = system: UO-31
[30] = system: MCF7
[31] = system: TK-10
[32] = system: RPMI-8226
[33] = system: SF-295
[34] = system: NCI-H226
[35] = system: MDA-N
[36] = system: IGROV-1
[37] = system: HOP-92
[38] = system: HL-60
[39] = system: CAKI-1
[40] = system: RXF 393
[41] = system: Hs-578T
[42] = system: MDA-MB-435
[43] = system: OVCAR-8
[44] = system: MOLT-4
[45] = system: UACC-257
[46] = system: T47D
[47] = system: UACC-62
[48] = system: ACHN
[49] = system: Malme-3M
[50] = system: SW-620
[51] = system: COLO 205
[52] = system: NCI-H460
[53] = system: HT-29
[54] = system: DU-145
[55] = system: HCC 2998
[56] = system: SR
[57] = system: NCI-H522
[58] = system: KM12
[59] = system: SNB-19

## Nc1ncc(N)c(NCC2(CO)CC(CCc3ccccc3)C2)n1 (stereo not drawn)
[1]
  GI50: 5.13 µM (inactive)
[2]
  GI50: 14.7 µM (inactive)
[3]
  GI50: 5.58 µM (inactive)
[4]
  GI50: 8.47 µM (inactive)
[5]
  GI50: 0.413 µM (active)
[6]
  GI50: 7.67 µM (inactive)
[7]
  GI50: 2.7 µM (inactive)
[8]
  GI50: 6.55 µM (inactive)
[9]
  GI50: 12.2 µM (inactive)
[10]
  GI50: 8.47 µM (inactive)
[11]
  GI50: 9.75 µM (inactive)
[12]
  GI50: 4.02 µM (inactive)
[13]
  GI50: 3.13 µM (inactive)
[14]
  GI50: 2.26 µM (inactive)
[15]
  GI50: 9.73 µM (inactive)
[16]
  GI50: 14.7 µM (inactive)
[17]
  GI50: 6.58 µM (inactive)
[18]
  GI50: 2.12 µM (inactive)
[19]
  GI50: 12.4 µM (inactive)
[20]
  GI50: 13.5 µM (inactive)
[21]
  GI50: 12.6 µM (inactive)
[22]
  GI50: 4.65 µM (inactive)
[23]
  GI50: 11.4 µM (inactive)
[24]
  GI50: 13.9 µM
[25]
  GI50: 3.46 µM (inactive)
[26]
  GI50: 5.89 µM (inactive)
[27]
  GI50: 14.4 µM (inactive)
[28]
  GI50: 6.95 µM (inactive)
[29]
  GI50: 1.19 µM (inactive)
[30]
  GI50: 3.37 µM (inactive)
[31]
  GI50: 12.5 µM (inactive)
[32]
  GI50: 0.482 µM (active)
[33]
  GI50: 11.1 µM (inactive)
[34]
  GI50: 5.83 µM (inactive)
[35]
  GI50: 8.28 µM (inactive)
[36]
  GI50: 7.94 µM (inactive)
[37]
  GI50: 3.39 µM (inactive)
[38]
  GI50: 0.12 µM (active)
[39]
  GI50: 7.73 µM (inactive)
[40]
  GI50: 12.5 µM (inactive)
[41]
  GI50: 9.55 µM (inactive)
[42]
  GI50: 11 µM (inactive)
[43]
  GI50: 10.5 µM (inactive)
[44]
  GI50: 0.393 µM (active)
[45]
  GI50: 8.85 µM (inactive)
[46]
  GI50: 1.11 µM (active)
[47]
  GI50: 5.81 µM (inactive)
[48]
  GI50: 12.1 µM (inactive)
[49]
  GI50: 11 µM (inactive)
[50]
  GI50: 9.98 µM (inactive)
[51]
  GI50: 3.71 µM (inactive)
[52]
  GI50: 13.1 µM (inactive)
[53]
  GI50: 6.21 µM (inactive)
[54]
  GI50: 11.2 µM (inactive)
[55]
  GI50: 11.3 µM (inactive)
[56]
  GI50: 1.08 µM (active)
[57]
  GI50: 0.718 µM (active)
[58]
  GI50: 10 µM (inactive)
[59]
  GI50: 11.1 µM (inactive)

## Clc1ccc(-c2nc3cc(C45CC6CC(CC(C6)C4)C5)ccc3[nH]2)cc1
[1]
  GI50: 52.4 µM (inactive)
[2]
  GI50: 37.8 µM (inactive)
[3]
  GI50: > 100 µM (inactive)
[4]
  GI50: 39.4 µM (inactive)
[5]
  GI50: 8.3 µM (inactive)
[6]
  GI50: 50.5 µM (inactive)
[7]
  GI50: 51.6 µM (inactive)
[8]
  GI50: 22.5 µM (inactive)
[9]
  GI50: > 100 µM (inactive)
[10]
  GI50: > 94.2 µM (inactive)
[11]
  GI50: 56.6 µM (inactive)
[12]
  GI50: 60.5 µM (inactive)
[13]
  GI50: 7.18 µM (inactive)
[14]
  GI50: 21.7 µM (inactive)
[15]
  GI50: 14.8 µM (inactive)
[16]
  GI50: > 100 µM (inactive)
[17]
  GI50: 20.1 µM (inactive)
[18]
  GI50: < 0.01 µM (active)
[19]
  GI50: 20.5 µM (inactive)
[20]
  GI50: > 95.7 µM (inactive)
[21]
  GI50: > 100 µM (inactive)
[22]
  GI50: > 100 µM (inactive)
[23]
  GI50: 17 µM (inactive)
[24]
  GI50: 9.46 µM
[25]
  GI50: 18.3 µM (inactive)
[26]
  GI50: 14.3 µM (inactive)
[27]
  GI50: 75 µM (inactive)
[28]
  GI50: > 100 µM (inactive)
[29]
  GI50: 15.3 µM (inactive)
[30]
  GI50: 18.5 µM (inactive)
[31]
  GI50: 40.2 µM (inactive)
[32]
  GI50: 4.21 µM (inactive)
[33]
  GI50: 57.7 µM (inactive)
[34]
  GI50: > 65 µM (inactive)
[35]
  GI50: 32.1 µM (inactive)
[36]
  GI50: > 100 µM (inactive)
[37]
  GI50: 17.7 µM (inactive)
[38]
  GI50: 2.07 µM (inactive)
[39]
  GI50: > 59.3 µM (inactive)
[40]
  GI50: 72.6 µM (inactive)
[41]
  GI50: 62.7 µM (inactive)
[42]
  GI50: 36.1 µM (inactive)
[43]
  GI50: 28.7 µM (inactive)
[44]
  GI50: 0.551 µM (active)
[45]
  GI50: 10.7 µM (inactive)
[46]
  GI50: 24.2 µM (inactive)
[47]
  GI50: 31.3 µM (inactive)
[48]
  GI50: 51.8 µM (inactive)
[49]
  GI50: 24.5 µM (inactive)
[50]
  GI50: 19.3 µM (inactive)
[51]
  GI50: 7.43 µM (inactive)
[52]
  GI50: 17.6 µM (inactive)
[53]
  GI50: 3.72 µM (inactive)
[54]
  GI50: 54 µM (inactive)
[55]
  GI50: 31.7 µM (inactive)
[56]
  GI50: 5.64 µM (inactive)
[57]
  GI50: 19.2 µM (inactive)
[58]
  GI50: 13.1 µM (inactive)
[59]
  GI50: 44.4 µM (inactive)
